Entries after “also recorded” stand apart in the source; their conditions may differ.
What was measured:
PPARδ = PPARδ gene expression in S-1-P treated human keratinocytes; type: cell-based; settings: human keratinocytes treated with S-1-P, standard culture conditions
Experimental: Spingosine-1-phosphate methylates PPARδ promoter. Cutaneous ceramide is degraded to sphingosine by bacterial ceramidase. Sphingosine is phosphorylated to sphingosine-1 phosphate (S-1-P) which is a bioactive lipid and can epigenetically downregulate gene regulation. Thus, a plausible role of S-1-P in regulating PPARδ in our experimental systems was tested. In the porcine pre-clinical model of wound biofilm infection elevated levels of S-1-P was detected following PAwt, but not PAΔCer, infection. […] Under standard culture conditions when human keratinocytes were treated with the bioactive sphingolipid S-1-P, gene expression of PPARδ was blunted. To determine whether such downregulation of PPARδ was epigenetically regulated, CpG methylation of the PPARδ promoter was studied.

PPARδ promoter = test: Bisulfite sequencing of PPARδ promoter (CpG methylation); type: cell-based, human; settings: HaCaT keratinocytes; S-1-P 5 μM, 48 hours
Experimental: The PCR products were gel extracted (GenElute Gel Extraction Kit, Sigma, cat #NA1111-1KT) and Sanger sequencing was done using ABI 3730 Genetic Analyzer. Analysis was done using Sequencher 5.4.5 (Gene Codes Corporation, MI). Results were confirmed by cloning the purified DNA into pGEM-T Easy Vector System II (Promega, cat #A1380), followed by sequencing.
Bisulfite conversion of DNA from HaCaT keratinocytes were transfected with Sphingosine-1-phosphate (5 μM, 48 hours) was performed using the Cells-to-CpG Bisulfite Conversion Kit (Thermo Fisher Scientific, part number: 4445555), as per manufacturer's protocol. The cells were lysed, and DNA was denatured using the denaturation reagent in a PCR tube at 50° C. for 10 min. Unmethylated cytosines were converted to uracil in the denatured DNA samples via treatment with conversion buffer containing bisulfite in a PCR reaction under following conditions: (1) 65° C. for 30 min, (2) 95° C. for 1.5 min, (3) 65° C. for 30 min, (4) 95° C. for 1.5 min, (5) 65° C. for 30 min, and (6) 4° C. up to 4 hr. This was followed by the removal of salts and desulfonation of the converted DNA in a binding column, a series of washing steps, and then elution of DNA. The converted DNA was stored at […] until further used.

DNMT3B = DNMT3B activity assay; type: cell-based; settings: human keratinocytes; 5 μmol S-1-P, 48 h
Experimental: Human keratinocytes cells were treated with 5 μmol of Sphingosine-1-phosphate (Avanti) for 48 h. Cells were collected and DNMT3B activity was measured using EpiQuik DNMT3B Activity/Inhibitor Screening Assay Core Kit (EPIGENTEK) according to manufacturer's instructions and using recombinant DNMT3B protein, (ACTIVE MOTIF) as a positive control for the assay.

DNA methyl transferases = test: DNA methyl transferase expression in S-1-P treated HK; type: cell-based, human
Text: (§1) FIGS. 11A-11O illustrate additional experimental results. FIG. 11A: Vector map of PPARδ promoter luciferase reporter. FIGS. 11B-11C: PPARδ drives CerS3 expression. CerS3 expression in human keratinocytes (HK) treated with PPARδ agonist (GW501516, 1 μmol/ml) or antagonist (GSK0660, 1 μmol/ml) as measured by qPCR. Data presented as mean±SEM (n=5). FIGS. 11D-11F: Upregulation of DNA methyl transferases in S-1-P treated HK. Data presented as mean±SEM (n=8). FIGS. 11G-11J: Induction of histone deacetylases in S-1P treated HK. Data presented as mean±SEM (n=8). FIGS. 11K-11N) Other histone deacetylases in S-1P treated HK. […] Data presented as mean±SEM, (n=8). FIG. 11O: miR-106b expression in HK treated with S-1-P (5 μmol/ml). Data presented as mean±SEM (n=8).

histone deacetylases = test: Histone deacetylase expression in S-1-P treated HK; type: cell-based, human
Text: as §1

miR-106b = miR-106b expression in HK treated with S-1-P; type: cell-based, human; settings: HK treated with S-1-P 5 μmol/ml
Text: as §1

CCCCCCCCCCCCC/C=C/[C@@H](O)[C@@H](N)COP(=O)(O)O [S-1-P, sphingosine-1 phosphate]
gene expression of PPARδ (PPARδ): blunted; also recorded: epigenetically silenced
PPARδ promoter methylation (PPARδ promoter): caused promoter methylation
catalytic activity of DNA methyl transferase 3B (DNMT3B) (DNMT3B): augmented catalytic activity
DNA methyl transferases expression (FIGS. 11D-11F) (DNA methyl transferases): Upregulation
histone deacetylases expression (FIGS. 11G-11J) (histone deacetylases): Induction
other histone deacetylases expression (FIGS. 11K-11N) (histone deacetylases): No significant changes
miR-106b expression (miR-106b): Induction

Source: patent US20240358671A1, “COMPOSITIONS AND METHODS TO TREAT SKIN DISORDERS” (THE TRUSTEES OF INDIANA UNIVERSITY, priority 2021, published 2024)
